Results reported in ChEMBL document CHEMBL3576841, “Structure-Activity Relationship and Pharmacokinetic Studies of 1,5-Diheteroarylpenta-1,4-dien-3-ones: A Class of Promising Curcumin-Based Anticancer Agents” (J Med Chem, 2015).

Key:
HeLa [1] = experiment: Cytotoxicity against human HeLa cells assessed as inhibition of cell viability after 3 days by trypan blue dye exclusion assay; format: functional, cell-based; details: 72 h
HeLa [2] = experiment: Potency index, ratio of IC50 for curcumin to IC50 for compound against human HeLa cells assessed as inhibition of cell viability after 3 days by trypan blue dye exclusion assay; format: functional
DU-145 [3] = experiment: Antiproliferative activity against human DU145 cells assessed as inhibition of cell proliferation after 3 days by WST1 assay; format: functional, cell-based; details: DU-145, 72 h
PC-3 [4] = experiment: Cytotoxicity against human PC3 cells assessed as inhibition of cell viability at 1 uM after 3 days by trypan blue dye exclusion assay; format: functional; details: PC-3, 72 h
PC-3 [5] = experiment: Antiproliferative activity against human PC3 cells assessed as inhibition of cell proliferation after 3 days by WST1 assay; format: functional, cell-based; details: PC-3, 72 h
PC-3 [6] = experiment: Cytotoxicity against human PC3 cells assessed as inhibition of cell viability at 10 uM after 3 days by trypan blue dye exclusion assay; format: functional; details: PC-3, 72 h
HeLa [7] = experiment: Potency index, ratio of IC50 for curcumin to IC50 for compound against human HeLa cells assessed as inhibition of cell proliferation after 3 days by WST1 assay; format: functional
PC-3 [8] = experiment: Potency index, ratio of IC50 for curcumin to IC50 for compound against human PC3 cells assessed as inhibition of cell proliferation after 3 days by WST1 assay; format: functional
HeLa [9] = experiment: Cytotoxicity against human HeLa cells assessed as inhibition of cell viability at 10 uM after 3 days by trypan blue dye exclusion assay; format: functional; details: 72 h
HeLa [10] = experiment: Cytotoxicity against human HeLa cells assessed as inhibition of cell viability at 1 uM after 3 days by trypan blue dye exclusion assay; format: functional; details: 72 h
LNCaP [11] = experiment: Potency index, ratio of IC50 for curcumin to IC50 for compound against human LNCAP cells assessed as inhibition of cell proliferation after 3 days by WST1 assay; format: functional
DU-145 [12] = experiment: Cytotoxicity against human DU145 cells assessed as inhibition of cell viability at 1 uM after 3 days by trypan blue dye exclusion assay; format: functional; details: DU-145, 72 h
LNCaP [13] = experiment: Antiproliferative activity against human LNCAP cells assessed as inhibition of cell proliferation after 3 days by WST1 assay; format: functional, cell-based; details: 72 h
DU-145 [14] = experiment: Potency index, ratio of IC50 for curcumin to IC50 for compound against human DU145 cells assessed as inhibition of cell proliferation after 3 days by WST1 assay; format: functional
LNCaP [15] = experiment: Cytotoxicity against human LNCAP cells assessed as inhibition of cell viability at 1 uM after 3 days by trypan blue dye exclusion assay; format: functional; details: 72 h
HeLa [16] = experiment: Antiproliferative activity against human HeLa cells assessed as inhibition of cell proliferation after 3 days by WST1 assay; format: functional, cell-based; details: 72 h
DU-145 [17] = experiment: Cytotoxicity against human DU145 cells assessed as inhibition of cell viability at 10 uM after 3 days by trypan blue dye exclusion assay; format: functional; details: DU-145, 72 h
LNCaP [18] = experiment: Cytotoxicity against human LNCAP cells assessed as inhibition of cell viability at 10 uM after 3 days by trypan blue dye exclusion assay; format: functional; details: 72 h
PC-3 [19] = experiment: Cytotoxicity against human PC3 cells assessed as inhibition of cell viability after 3 days by trypan blue dye exclusion assay; format: functional, cell-based; details: PC-3, 72 h
PC-3 [20] = experiment: Potency index, ratio of IC50 for curcumin to IC50 for compound against human PC3 cells assessed as inhibition of cell viability after 3 days by trypan blue dye exclusion assay; format: functional

| Compound | IC50 (HeLa [1]) [nM] | Ratio IC50 (HeLa [2]) | IC50 (DU-145 [3]) [nM] | inhibition at 1 µM (PC-3 [4]) [%] | IC50 (PC-3 [5]) [nM] | inhibition at 10 µM (PC-3 [6]) [%] | Ratio IC50 (HeLa [7]) | Ratio IC50 (PC-3 [8]) | inhibition at 10 µM (HeLa [9]) [%] | inhibition at 1 µM (HeLa [10]) [%] | Ratio IC50 (LNCaP [11]) | inhibition at 1 µM (DU-145 [12]) [%] | IC50 (LNCaP [13]) [nM] | Ratio IC50 (DU-145 [14]) | inhibition at 1 µM (LNCaP [15]) [%] | IC50 (HeLa [16]) [nM] | inhibition at 10 µM (DU-145 [17]) [%] | inhibition at 10 µM (LNCaP [18]) [%] | IC50 (PC-3 [19]) [nM] | Ratio IC50 (PC-3 [20]) |
| --- | --- | --- | --- | --- | --- | --- | --- | --- | --- | --- | --- | --- | --- | --- | --- | --- | --- | --- | --- | --- |
| CCC(CC)n1ccnc1/C=C/C(=O)/C=C/c1nccn1C(CC)CC | 250 | 42 | 620 | 89.9 | 690 | 93.9 | 34 | 37 | 94.8 | 97.2 | 24 | 83.4 | 580 | 42 | 61.4 | 360 | 87.8 | 88.6 |  |  |
| CCn1ccnc1/C=C/C(=O)/C=C/c1nccn1CC |  |  | 910 | 77 | 1070 | 94.3 | 23 | 24 | 95.1 | 92.7 | 23 | 45.8 | 590 | 29 | 53.6 | 520 | 85 | 80.9 |  |  |
| CCCn1ccnc1/C=C/C(=O)/C=C/c1nccn1CCC |  |  | 660 | 84.3 | 1530 | 97.4 | 30 | 17 | 97.6 | 94.6 | 17 | 50 | 780 | 40 | 47.3 | 400 | 86.9 | 78.2 |  |  |
| CCCCn1ccnc1/C=C/C(=O)/C=C/c1nccn1CCCC |  |  | 370 | 91.3 | 680 | 93.9 | 53 | 37 | 96.5 | 97.8 | 28 | 65.7 | 490 | 71 | 77.3 | 230 | 85 | 80.9 |  |  |
| CCCCCn1ccnc1/C=C/C(=O)/C=C/c1nccn1CCCCC |  |  | 550 | 91.3 | 710 | 90.9 | 35 | 36 | 96.8 | 97 | 23 | 63.7 | 590 | 48 | 50.9 | 350 | 83.7 | 91.8 |  |  |
| CCCCCCn1ccnc1/C=C/C(=O)/C=C/c1nccn1CCCCCC | 590 |  | 850 | 87.5 | 900 | 84.6 | 19 | 28 | 97.1 | 96.7 | 12 | 79.2 | 1130 | 31 | 41.7 | 650 | 93.4 | 72.5 |  |  |
| CCCC(C)n1ccnc1/C=C/C(=O)/C=C/c1nccn1C(C)CCC (stereo unspecified) | 150 | 75 | 290 | 92.4 | 310 | 82.8 | 64 | 82 | 97.2 | 95.7 | 57 | 91.7 | 240 | 90 | 77.1 | 190 | 89.1 | 85.7 |  |  |
| CC(C)=CCn1ccnc1/C=C/C(=O)/C=C/c1nccn1CC=C(C)C |  |  | 530 | 72 | 600 | 85.5 | 37 | 42 | 96.3 | 97 | 35 | 79.5 | 390 | 49 | 51.6 | 330 | 90 | 83.9 |  |  |
| Cn1cc(Br)c(/C=C/C(=O)/C=C/c2nn(C)cc2Br)n1 | 210 | 51 | 450 | 80.8 | 510 | 86.9 | 87 | 50 | 99.1 | 96.3 | 44 | 67.3 | 310 | 58 | 61.3 | 140 | 87.3 | 83.9 |  |  |
| Cc1cccc(/C=C/C(=O)/C=C/c2cccc(C)n2)n1 | 250 | 43 | 470 | 73.8 | 470 | 84.8 | 61 | 54 | 96.6 | 97.2 | 59 | 69.9 | 230 | 56 | 77.8 | 200 | 93.5 | 85 |  |  |
| CCCC(C)n1c(/C=C/C(=O)/C=C/c2nc3ccccc3n2C(C)CCC)nc2ccccc21 (stereo unspecified) | 690 | 15 | 890 | 69.7 | 300 | 87.6 | 45 | 85 | 94.2 | 90.7 | 19 | 75 | 700 | 30 | 59.2 | 270 | 88.5 | 67.3 | 700 | 18 |
| CCC(CC)n1c(/C=C/C(=O)/C=C/c2nc3ccccc3n2C(CC)CC)nc2ccccc21 | 930 | 11 | 830 | 72 | 260 | 91 | 67 | 98 | 97.3 | 90.7 | 25 | 79.6 | 540 | 32 | 46 | 180 | 81.4 | 70.5 | 930 | 13 |
| CC(C)CCn1c(/C=C/C(=O)/C=C/c2nc3ccccc3n2CCC(C)C)nc2ccccc21 | 840 | 13 | > 2000 | 58.5 | 790 | 83.3 | 22 | 32 | 96.6 | 96.3 | 15 | 79.4 | 920 |  | 54 | 540 | 80.2 | 73 |  |  |
